Peptide text beside a SMILES is read from it. * marks the point of attachment. Cbz = O=C(OCc1ccccc1)*
Key:
[1] = MTT viability assay, 72 h; format: cell-based; details: human, HeLa-CD4-LTR-LacZ cells, mean ± SD, n = 2 to 3
Experimental: The assay was performed with MTT [3-(4,5-dimethyl-2-thiazolyl)-2,5-diphenyl-2H-tetrazolium bromide] as described in reference.

NL4-3 strain = test: HIV-1 NL4-3 infection of HeLa-CD4-LTR-LacZ reporter cells, LacZ measured 72 h later; format: cell-based; details: Human immunodeficiency virus 1, NL43; HeLa-CD4-LTR-LacZ cells infected with NL4-3, LacZ at 72 h; mean ± SD, n = 2 to 3; read-out: IC50
Text: To understand the structure-function relationship of the dCA molecule with respect to our structural model, we synthesized and characterized the ability of 11 analogs of dCA to inhibit HIV infection (Table 2). […] We used HeLa-CD4 cells stably expressing the HIV-1 5′ LTR driving β-galactosidase production (HeLa-CD4-LTR-LacZ cells) as a reporter for the infection with isolate NL4-3. Table 2 summarizes the IC50, 50% cytotoxic concentration (CC50), and therapeutic index (TI) for each compound. The loss of dCA activity was directly associated with the positioning and the chemical environment of the azote on the F ring and the presence of oxygen in ring B. Moreover, the E-F “skeleton angle” and the distance between the A-B-C-D and F rings affected the activity by more than 50-fold (analogs 7 and 10).
The activity of Tat in HeLa-CD4-LTR-Luc and OM10.1 cells was verified by a transactivation assay as described in reference. In HeLa-CD4-LTR-LacZ cells, the assay was performed as described in reference. A detailed protocol is provided in Text S1.
Transactivation assay. In HeLa-CD4-LTR-Luc cells and OM10.1 cells. The activity of Tat was verified by a transactivation assay as previously reported (13). Briefly, HeLa-CD4-LTR-Luc cells and OM10.1 were plated at 1×10^5 and 8x10^5 cells per well of a 6-well plate respectively. The following day, recombinant Tat protein was added to the cells in culture media without serum and in the presence of 100 μM of Chloroquine. Five hours later, serum was added at 5 % to the culture media. Cells were lysed 24 hrs later, protein concentration determined by Bradford assay and luciferase activity was measured for HeLa-CD4-LTR-Luc cells. Results corresponding to luciferase activity per protein concentration of each sample are shown as relative light unit (RLU). As for the OM10.1 cells, RNA was extracted using the RNA extraction kit (Qiagen) and DNA contamination was removed using Turbo-DNAse kit (Ambion). First-strand cDNA was synthesized using SuperscriptIII^TM first-strand cDNA kit (Invitrogen) and random hexamers as first-strand primers. qRT-PCR was performed with an aliquot of cDNA as template, using LightCycler? 480 SYBR Green I Master in a 20 µL reaction according to the manufacturer’s instructions. The mRNAs from each sample were used as negative control. Primer sequences for GAPDH (13) and all viral mRNAs as previously described (59). In HeLa-CD4-LTR-LacZ cells. It was performed as previously described (10). Briefly, cells were plated at 1×10^4 cells per well of a 96-well plate. Twenty-four hrs later HIV-1 NL4-3 strain was added in the presence of testing compound or DMSO. Seventy-two hrs post infection, cells were disrupted in lysis buffer (60 mM Na2HPO4, 40 mM NaH2PO4, 10 mM KCl, 10 mM MgSO4, 2.5 mM EDTA, 50 mM ß-mercaptoethanol, 0.125 % Nonidet P-40) and a quantitative chlorophenol red-ß-D-galactopyranoside (CPRG)-based (Boehringer Mannheim) assay was performed. The cell extracts were incubated in a reaction buffer (0.9 M phosphate buffer [pH 7.4], 9 mM MgCl2, 11 mM ß-mercaptoethanol, 7 mM CPRG) until a red color developed and measured with an LP400 (Becton Dickinson) plate reader at 572 nm.

[2] = system: CA-sensitive AML cell lines; parameters: method as in PMID 16522087, PMID 17765550, PMID 26416749; details: read-out: IC50, antileukemic activity; cited from earlier work
[3] = system: human umbilical vein endothelial cells (HUVECs); parameters: method as in PMID 16522087, PMID 17765550, PMID 26416749; details: read-out: EC50, antiproliferative; cited from earlier work
intracellular Tat = biological target: T1, intracellular Tat (Human immunodeficiency virus type 1 group M subtype B, UniProt P69697); test: Steady state of recombinant Tat in HeLa-CD4-LTR-Luc cells (Western blot); format: cell-based, HIV-1; details: 6 hours with compound, MG132 10 μM
T1 construct: pTatC6H-1 (NIH AIDS Reagent Program) plasmid encoding C-terminal 6xHistidine Tat1-86 (HXB3, subtype B); made in house; host or cells: E. coli BL21 (plasmid pTatC6H-1, NIH AIDS Reagent Program)
T1 sequence (P69697 whole entry): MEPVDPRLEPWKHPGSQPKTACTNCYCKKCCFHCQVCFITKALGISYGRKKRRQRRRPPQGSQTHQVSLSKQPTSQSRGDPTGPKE
Experimental: FIG 5 dCA stabilizes Tat structure. (A) Trp fluorescence assays. (Left) Schematic of the assay. (Center) DMSO, dCA (7.5× Tat concentration) or raltegravir (Ralt.; 7.5× Tat concentration) was incubated with Tat. The fluorescence of the Trp^11 of Tat protein was measured at the indicated wavelengths. Acrylamide (250 mM) was used as a quenching control of Tat fluorescence. (Right) Peak absorbance (λmax) versus increasing fold ratios of compounds to Tat protein. Data are representative of n = 3 independent experiments. (B) DARTS assays. Tat was incubated with DMSO or dCA, at increasing concentrations, in the presence of increasing concentrations of proteinase K (PK). […] Data are representative of n = 2 independent experiments. (C) Steady state of Tat in the presence of dCA in vivo. HeLa-CD4-LTR-Luc cells were incubated with recombinant Tat and then washed and incubated with the indicated compounds for 6 hours. […] (Left) Western blot representative of n = 4 independent experiments. MG132 was used as a positive control of Tat protection from degradation, and raltegravir was used as a negative control. (Right) Densitometry of the Tat band normalized to the actin band. Results represent the mean ± SEM from n = 4 independent experiments. Statistical significance was determined using one-way ANOVA with post hoc Tukey’s test. ns, not significant; ***, P < 0.0001; **, P < 0.001.
Next, we determined the half-life of recombinant Tat in HeLa-CD4-LTR-Luc cells in the presence of dCA (Fig. 5C). We incubated recombinant Tat with cells for 4 hours, and after several washes to remove extracellular Tat protein, we incubated cells with DMSO, dCA, or raltegravir for an additional 6 hours. Western blotting with anti-His antibody was performed to reveal intracellular Tat. […]
Half-life of Tat in vivo. […] Total protein concentration was assessed by Bradford assay and Tat protein in each condition determined by western blot with an anti-His antibody at 1:1500 dilution (Thermofisher). […]

Pep B-TAR interaction = biological target: T2, Pep B-TAR interaction (Human immunodeficiency virus type 1 group M subtype B, UniProt P20879); test: EMSA of Tat's basic peptide (Pep B) with TAR; format: biochemical, HIV-1; details: Tat basic peptide residues 45 to 59
T2 construct: Pep B is a peptide encompassing the basic domain of HIV Tat (^45ISYGRKKRRQRRRAP^59)
Text: FIG 6 dCA binding to Tat disrupts Tat-TAR interaction. (A) EMSA of full-length Tat with TAR in the presence of dCA. Raltegravir (Ralt.) and deleted bulge TAR (ΔTAR) were used as negative controls. Data are representative of n = 3 independent experiments. (B) EMSA of Tat’s basic domain with TAR in the presence of increasing concentrations of dCA to Tat’s basic peptide. Pep B is a peptide encompassing the basic domain of HIV Tat (^45ISYGRKKRRQRRRAP^59). Pep C (^69LSKQPASQPRGDPTG^83) and unlabeled or cold TAR (TARc) were used as negative controls. Neomycin, which binds to Tat and TAR, was used as a positive control. Ratios of compounds (or TARc) concentrations to peptide are shown. Data are representative of n = 3 independent experiments. […] Shown are ITC results from binding of dCA (left) or Tat peptide (right) to TAR at 25°C. […] For the lower plots, results were converted to molar heats and plotted against the molar ratio of dCA or peptide to RNA. Data are representative of n = 2 independent experiments. (D) Tat-TAR interaction blocked by dCA in HeLa-CD4-LTR-Luc cells in vivo. Cells transfected with Tat or Tat Mut (arginine residues mutated to alanine in Tat’s basic domain) were incubated with DMSO or the indicated compounds (25 nM). Forty-eight hours later, cells were either lysed to determine the luciferase activity or cross-linked for ChIP assays. Luciferase activity was determined relative to protein concentration (Bradford assay) (Fig. S9A). Western blotting was performed to verify the amount of Tat under each condition (Fig. S9B). ChIP of Tat was followed by qRT-PCR of TAR DNA. The results are presented as percentage of input. The mean ± SEM is represented. Data are representative of n = 3 independent experiments. Statistical significance was determined using one-way ANOVA with post hoc Tukey’s test with 3 technical replicates. ns, not significant; ***, P < 0.0001.
We also performed the same experiment with a peptide encompassing the basic domain of Tat (Pep B; residues 45 to 59) and dCA.
EMSA With full-length Tat: similar protocol was performed as in Das et al. (60). […]

Row | Compound | CC50 at 72 h [1] [µM] | IC50 (NL4-3 strain) [µM] | also measured
1 | CC(=O)N(C)C1CC23CCC4(O2)C(=CCC2(C)C(c5ccc6ccncc6c5)=CCC24)C=C3C(O)C1O (centres unmarked) [# 3] | 5.6 | 0.037 ± 0.0058 | 
2 | CC12CC=C3C=C4C(O)C(O)C(N)CC45CCC3(O5)C1CC=C2c1ccc2ccncc2c1 (centres unmarked) [# 4] | 23.1 ± 0.3 | 0.004 ± 0.0005 | 
3 | CN(C)C1CC23CCC4(O2)C(=CCC2(C)C(c5ccc6cnncc6c5)=CCC24)C=C3C(O)C1O (centres unmarked) [# 5] | 16.4 | 0.141 | 
4 | Cc1n[nH]c2cc(C3=CCC4C3(C)CC=C3C=C5C(O)C(O)C(N(C)C)CC56CCC34O6)ccc12 (centres unmarked) [# 6] | 12.1 ± 0.8 | 0.0675 ± 0.0068 | 
5 | CN(C)C1CC23CCC4(O2)C(=CCC2(C)C(c5ccc6ccncc6c5)C(=O)CC42)C=C3C(O)C1O (centres unmarked) [# 9] | > 50 | 0.0005 ± 0.0001 | 
6 | CN(C)[C@H]1C[C@@]23CC[C@@]4(O2)C(=CC[C@]2(C)[C@@H](c5ccc6ccncc6c5)CC[C@H]24)C=C3[C@@H](O)[C@@H]1O [CA, cortistatin A] |  |  | IC50 [2]: ~0.01 µM; EC50 [3]: 0.35 µM
7 | CC(C)C[C@@H](C=O)NC(=O)[C@H](CC(C)C)NC(=O)[C@H](CC(C)C)NC(=O)OCc1ccccc1 [MG132] (Cbz-Leu-Leu-Leu-aldehyde) |  |  | percentage of remaining Tat (intracellular Tat): 40%
8 | neomycin |  |  | inhibition of Pep B-TAR interaction (EMSA) (Pep B-TAR interaction): inhibited the interaction of Pep B with TAR
